# Test: Solubility of rizatriptan in supercritical CO2, static gravimetric method
# Type: physicochemical
# Method: A specialized high-pressure system is employed to measure the solubility of rizatriptan using gravimetric techniques in a supercritical CO2[6]. A 200 mL vessel capable of withstanding pressures up to 35 MPa and temperatures up to 423 K is prepared with leak-free seals, valves, and fittings. All valves and connectors were 1/8 inch in size. The system’s pressure and temperature sensors are calibrated for accuracy. Next, 2000 mg of rizatriptan powder is weighed precisely using an analytical balance with 0.01 mg of sensitivity. The powder is then compacted into 5-mm diameter tablets to ensure uniformity and structural integrity. The tablets are placed in a basket inside the vessel to maximize their exposure to SC-CO2. CO2 is introduced gradually using a high-precision pump (SC-1000, SUPEREX), with the pressure increased in 0.05 MPa increments to maintain stability. The pressure is monitored and held within ± 0.01 MPa. Temperature is controlled within ± 0.1 K using a thermocouple, and the mixture is stirred at 250 rpm to ensure uniformity. […] The pressure and temperature indicators are checked to ensure stability. After equilibration, the vessel is carefully depressurized to ambient conditions to halt dissolution without losing the sample. The remaining tablets are then removed and cleaned of residual CO2. If needed, they are dried in a desiccator. The undissolved drug is weighed using a high-precision balance. The experiment is replicated at least three times to calculate the mean solubility and standard deviation. The following formula was used to calculate the mass of dissolved rizatriptan:1
# Include the molecular weights of rizatriptan ([…]) and CO2 (44.01 g/mol) in the mole fraction calculations.2 3 4 5
# The measurements were conducted at four isotherms (308.2 K, 318.2 K, 328.2 K, and 338.2 K) and […] pressure points (12, 15, 18, 21, 24, 27, 30 MPa). Table 3 documents the experimental conditions, including temperature, pressure, SC-CO2 density, mole fraction, standard deviation, and solubility in grams per liter.
smiles,measurement,setting,value
"CN(C)CCc1c[nH]c2ccc(Cn3cncn3)cc12 [Rizatriptan, Rizatriptan benzoate]",mole fraction in SC-CO2,"308.2 K, 12 MPa",0.09 × 10^−4
same,mole fraction in SC-CO2,"308.2 K, 30 MPa",0.286 × 10^−4
same,mole fraction in SC-CO2,"328.2 K, 12 MPa",0.45 × 10^−5
same,mole fraction in SC-CO2,"328.2 K, 30 MPa",3.80 × 10^−5
same,mole fraction in SC-CO2,"338.2 K, 12 MPa",0.024 × 10^−4
same,mole fraction in SC-CO2,"338.2 K, 30 MPa",0.419 × 10^−4
same,mole fraction y in SC-CO2,"338.2 K, 30 MPa",4.19 × 10^−5
same,"Experimental mole fraction (y) in supercritical carbon dioxide, y × 10^4","T 308.0 K (text 308.2 K), P 12 MPa, ρCO2 768.52 kg/m^3",0.090 × 10^4
same,"Experimental mole fraction (y) in supercritical carbon dioxide, y × 10^4","T 308.0 K (text 308.2 K), P 15 MPa, ρCO2 816.10 kg/m^3",0.121 × 10^4
same,"Experimental mole fraction (y) in supercritical carbon dioxide, y × 10^4","T 308.0 K (text 308.2 K), P 18 MPa, ρCO2 816.10 kg/m^3",0.141 × 10^4
same,"Experimental mole fraction (y) in supercritical carbon dioxide, y × 10^4","T 308.0 K (text 308.2 K), P 21 MPa, ρCO2 874.55 kg/m^3",0.177 × 10^4
same,"Experimental mole fraction (y) in supercritical carbon dioxide, y × 10^4","T 308.0 K (text 308.2 K), P 24 MPa, ρCO2 895.66 kg/m^3",0.227 × 10^4
same,"Experimental mole fraction (y) in supercritical carbon dioxide, y × 10^4","T 308.0 K (text 308.2 K), P 27 MPa, ρCO2 913.70 kg/m^3",0.258 × 10^4
same,"Experimental mole fraction (y) in supercritical carbon dioxide, y × 10^4","T 308.0 K (text 308.2 K), P 30 MPa, ρCO2 929.85 kg/m^3",0.286 × 10^4
same,"Experimental mole fraction (y) in supercritical carbon dioxide, y × 10^4","T 318.0 K (text 318.2 K), P 12 MPa, ρCO2 659.80 kg/m^3",0.069 × 10^4
same,"Experimental mole fraction (y) in supercritical carbon dioxide, y × 10^4","T 318.0 K (text 318.2 K), P 15 MPa, ρCO2 743.83 kg/m^3",0.126 × 10^4
same,"Experimental mole fraction (y) in supercritical carbon dioxide, y × 10^4","T 318.0 K (text 318.2 K), P 18 MPa, ρCO2 790.29 kg/m^3",0.162 × 10^4
same,"Experimental mole fraction (y) in supercritical carbon dioxide, y × 10^4","T 318.0 K (text 318.2 K), P 21 MPa, ρCO2 823.80 kg/m^3",0.215 × 10^4
same,"Experimental mole fraction (y) in supercritical carbon dioxide, y × 10^4","T 318.0 K (text 318.2 K), P 24 MPa, ρCO2 850.15 kg/m^3",0.281 × 10^4
same,"Experimental mole fraction (y) in supercritical carbon dioxide, y × 10^4","T 318.0 K (text 318.2 K), P 27 MPa, ρCO2 872.14 kg/m^3",0.322 × 10^4
same,"Experimental mole fraction (y) in supercritical carbon dioxide, y × 10^4","T 318.0 K (text 318.2 K), P 30 MPa, ρCO2 890.90 kg/m^3",0.339 × 10^4
same,"Experimental mole fraction (y) in supercritical carbon dioxide, y × 10^4","T 328.0 K (text 328.2 K), P 12 MPa, ρCO2 506.75 kg/m^3",0.045 × 10^4
same,"Experimental mole fraction (y) in supercritical carbon dioxide, y × 10^4","T 328.0 K (text 328.2 K), P 15 MPa, ρCO2 654.94 kg/m^3",0.099 × 10^4
same,"Experimental mole fraction (y) in supercritical carbon dioxide, y × 10^4","T 328.0 K (text 328.2 K), P 18 MPa, ρCO2 724.13 kg/m^3",0.176 × 10^4
same,"Experimental mole fraction (y) in supercritical carbon dioxide, y × 10^4","T 328.0 K (text 328.2 K), P 21 MPa, ρCO2 768.74 kg/m^3",0.241 × 10^4
same,"Experimental mole fraction (y) in supercritical carbon dioxide, y × 10^4","T 328.0 K (text 328.2 K), P 24 MPa, ρCO2 801.92 kg/m^3",0.302 × 10^4
same,"Experimental mole fraction (y) in supercritical carbon dioxide, y × 10^4","T 328.0 K (text 328.2 K), P 27 MPa, ρCO2 828.51 kg/m^3",0.353 × 10^4
same,"Experimental mole fraction (y) in supercritical carbon dioxide, y × 10^4","T 328.0 K (text 328.2 K), P 30 MPa, ρCO2 850.83 kg/m^3",0.380 × 10^4
same,"Experimental mole fraction (y) in supercritical carbon dioxide, y × 10^4","T 338.0 K (text 338.2 K), P 12 MPa, ρCO2 384.17 kg/m^3",0.024 × 10^4
same,"Experimental mole fraction (y) in supercritical carbon dioxide, y × 10^4","T 338.0 K (text 338.2 K), P 15 MPa, ρCO2 555.33 kg/m^3",0.136 × 10^4
same,"Experimental mole fraction (y) in supercritical carbon dioxide, y × 10^4","T 338.0 K (text 338.2 K), P 18 MPa, ρCO2 651.28 kg/m^3",0.213 × 10^4
same,"Experimental mole fraction (y) in supercritical carbon dioxide, y × 10^4","T 338.0 K (text 338.2 K), P 21 MPa, ρCO2 709.59 kg/m^3",0.279 × 10^4
same,"Experimental mole fraction (y) in supercritical carbon dioxide, y × 10^4","T 338.0 K (text 338.2 K), P 24 MPa, ρCO2 751.27 kg/m^3",0.334 × 10^4
same,"Experimental mole fraction (y) in supercritical carbon dioxide, y × 10^4","T 338.0 K (text 338.2 K), P 27 MPa, ρCO2 783.19 kg/m^3",0.388 × 10^4
same,"Experimental mole fraction (y) in supercritical carbon dioxide, y × 10^4","T 338.0 K (text 338.2 K), P 30 MPa, ρCO2 809.68 kg/m^3",0.419 × 10^4
same,crossover pressure,solubility isotherms 308.2–338.2 K in SC-CO2,approximately 15 MPa
same,solubility at 240 min,"supercritical CO2, 308.2 K to 338.2 K, 12 to 30 MPa, read-out: solubility (dissolution concentration) in SC-CO2, range over all conditions",8 to 302 µg/mL
